The results in this text go back to article PMC12655551, “Design, Synthesis, and Evaluation of Pyrrole-Based Selective MAO-B Inhibitors with Additional AChE Inhibitory and Neuroprotective Properties Identified via Virtual Screening” (Pharmaceuticals, 2025).

Series [1] concerns isolated rat brain synaptosomes. In words: 6-OHDA-induced neurotoxicity in isolated rat brain synaptosomes. The series is classed as cell-based. The note with it: compound 50 µM with 6-OHDA 150 μM. The protocol: (§1) Two types of buffers were used for the isolation of the rat brain synaptosomes and mitochondria. Buffer A was 5 mM HEPES and 0.32 M Sucrose; Buffer B was 290 mM NaCl, 0.95 mM MgCl2 × 2H2O, 10 mM KCl, 2.4 mM CaCl2 × 2H2O, 2.1 mM NaH2PO4, 44 mM HEPES, 13 mM D-Glucose. For the gradient centrifugation, Percoll reagent was used. A stock solution of 90% Percoll was used to prepare 16%, 10% and 7.5% solutions. All the solutions were used as described below. Immediately after harvesting, synaptosomes, microsomes, and mitochondria were incubated with the exam compounds for 1 h. For assessing the possible neurotoxicity of the most MAOB active compounds, the sub-cellular fractions were incubated with 100 µM of them, and for evaluating their possible neuroprotective and antioxidant activities in different models of neurotoxicity, the sub-cellular fractions were incubated with 50µM of them. The protein measurement of all the sub-cellular fractions was made by the method of Lowry et al., 1951 [57].
The synaptosomes were prepared from rat brains by multiple sub-cellular fractionation using a Percoll gradient.
This in vitro model resembles the neurodegenerative processes occurring in PD. Dopamine metabolism and oxidation led to the formation of reactive oxygen species (ROS) and reactive quinones. These processes were catalyzed by the MAOB enzyme. They induced dopamine neurotoxicity and neurodegeneration. The synaptosomes were incubated with 150 μM 6-OHDA for 1 h.
After the incubation, the synaptosomes were centrifuged three times at 15,000× g for 1 min. MTT-test was performed to determine synaptosomal vitality by the method described by Mungarro-Menchaca et al..
The level of GSH was determined by measuring the non-protein SH-groups after precipitation of the proteins with trichloroacetic acid (TCA). The presence of thiols in the supernatant was determined using Elmman’s reagent. The resulting yellow color was measured spectrophotometrically (λ = 412 nm).

Series [2] addresses T1, recombinant human MAO-B (hMAOB) (Homo sapiens, UniProt P27338).
T1 sequence (P27338 1-520): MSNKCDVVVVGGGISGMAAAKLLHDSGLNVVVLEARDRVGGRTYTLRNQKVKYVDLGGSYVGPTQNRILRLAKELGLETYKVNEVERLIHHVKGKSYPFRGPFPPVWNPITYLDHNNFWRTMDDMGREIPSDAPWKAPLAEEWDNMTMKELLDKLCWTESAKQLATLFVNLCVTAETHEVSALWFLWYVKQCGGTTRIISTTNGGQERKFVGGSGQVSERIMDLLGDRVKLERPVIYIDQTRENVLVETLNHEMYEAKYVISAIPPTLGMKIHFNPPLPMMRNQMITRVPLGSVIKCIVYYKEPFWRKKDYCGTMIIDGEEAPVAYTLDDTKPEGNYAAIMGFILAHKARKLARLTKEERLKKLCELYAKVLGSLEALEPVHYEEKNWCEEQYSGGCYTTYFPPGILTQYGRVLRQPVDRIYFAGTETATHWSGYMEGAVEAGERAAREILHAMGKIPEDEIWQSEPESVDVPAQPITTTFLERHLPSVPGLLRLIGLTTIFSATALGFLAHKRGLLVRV
In words: biochemical. It counts as biochemical. The note with it: 1 µM compound. The protocol: (§2) Monoamine oxidase (MAO) activity for both recombinant human MAO-A (hMAOA) and MAO-B (hMAOB) was assessed using a fluorometric assay based on the Amplex® UltraRed reagent. This method, originally reported by Bautista-Aguilera et al. and later adapted with minor changes by Kasabova-Angelova et al., detects hydrogen peroxide or peroxidase activity present in enzymes or biological samples. In this assay, Amplex® Red reacts in a 1:1 molar ratio with hydrogen peroxide in the presence of peroxidase, producing the red-fluorescent compound resorufin. Due to resorufin’s strong extinction coefficient (58,000 ± 5000 cm^−1·M^−1), measurements could be accurately taken using either fluorometric or spectrophotometric methods. […] The control conditions included the use of purified hMAOA or hMAOB in reaction buffer, enzyme solutions with hydrogen peroxide, and buffer alone. All the test compounds were initially prepared at a 1 µM final concentration. These compounds were combined with either hMAOA or hMAOB and loaded into a 96-well plate (with eight replicates per test compound), followed by incubation for 30 min at 37 °C in the dark. Subsequently, a 50 µL detection mix was added to each well. This mix contained Amplex® Red, horseradish peroxidase (HRP), and tyramine substrate, all prepared in a reaction buffer. As this enzymatic reaction proceeded continuously, the fluorescence signal was recorded every 30 min (at 0, 30, 60, 90, 120, and 150 min) to track enzymatic kinetics.

Series [3] addresses T2, recombinant human MAO-A (hMAOA) (Homo sapiens, UniProt P21397).
T2 sequence (P21397 1-527): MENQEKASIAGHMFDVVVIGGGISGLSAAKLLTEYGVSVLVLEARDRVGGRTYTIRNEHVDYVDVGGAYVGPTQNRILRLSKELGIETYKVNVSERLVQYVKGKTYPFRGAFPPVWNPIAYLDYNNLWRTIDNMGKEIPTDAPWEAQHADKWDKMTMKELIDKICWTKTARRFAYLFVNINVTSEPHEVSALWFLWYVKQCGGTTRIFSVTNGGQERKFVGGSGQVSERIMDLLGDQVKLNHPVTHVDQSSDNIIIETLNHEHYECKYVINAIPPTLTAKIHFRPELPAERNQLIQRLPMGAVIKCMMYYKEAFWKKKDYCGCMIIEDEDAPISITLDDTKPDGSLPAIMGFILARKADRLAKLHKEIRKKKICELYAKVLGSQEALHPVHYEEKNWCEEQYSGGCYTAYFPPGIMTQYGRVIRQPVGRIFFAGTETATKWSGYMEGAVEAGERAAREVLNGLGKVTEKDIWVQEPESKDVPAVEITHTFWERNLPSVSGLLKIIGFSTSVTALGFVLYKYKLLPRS
In words: MAO-A inhibition, fluorometric Amplex UltraRed assay. The note with it: for inhibition at 1 µM: read-out: Inhibition Activity 1 µM MAO-A. The series is classed as biochemical. The protocol: as §2

For series [4], the system named is isolated rat brain microsomes. In words: FeSO4/ascorbic acid-induced lipid peroxidation in isolated rat brain microsomes. As to conditions: compound 50 μM with Fe/AA. It counts as cell-based. The protocol:
as §1
(§3) The brain was homogenized in 9 vol. of 0.1 M Tris buffer containing 0.1 mM Dithiothreitol, 0.1 mM Phenylmethylsulfonyl fluoride, 0.2 mM EDTA, 1.15% KCl, and 20% (v/v) glycerol at pH 7.4. The homogenate was centrifuged twice at 17,000× g for 30 min. […]
(§4) The quantity of the lipid peroxidation product MDA was assessed using the method described by Deby and Goutier.

In series [5] the test system is isolated rat brain microsomes. In words: Pro-oxidant effect of compounds alone on isolated rat brain microsomes (MDA). As to conditions: compound alone, 100 μM, vs non-treated microsomes. The series is classed as cell-based. As to the method: as §1, §3, §4

The structures appear in SMILES notation. Like-named read-outs stand apart in the source and are kept apart here.

The inhibition is how much of the control response was suppressed. The term IC50 denotes the concentration needed to halve the response being measured.

Take `Cc1ccc(C)n1-c1ccc(CC(=O)O)cc1` [EM-DC-27, [4-(2,5-dimethyl-1H-pyrrol-1-yl)phenyl]acetic acid]: in series [1], the “preservation of GSH level compared to toxic 6-OHDA” value came to 20%. The inhibition at 1 µM in series [2] came to 50 ± 7.1%; in series [3] (1 µM compound), 99 ± 7.1%. Besides, the half-inhibitory concentration (IC50) in series [3] (means ± SD of three experiments, read-out: MAO-A IC50) was greater than 100 µM. The “decrease of MDA production compared to the toxic agent” value in series [4] came out at 56%. The “increase of MDA production compared to the control” value in series [5] is given as 40%.
In the case of `Cc1ccc(C)n1C(Cc1cnc[nH]1)C(=O)O` (stereo not drawn) [EM-DC-19, 2-(2,5-dimethyl-1H-pyrrol-1-yl)-3-(2H-imidazol-4-yl)propanoic acid], in series [1], the “preservation of GSH level compared to toxic 6-OHDA” value was found to be 20%. In addition, the inhibition at 1 µM amounted to 50 ± 7.1% in series [2] and 99 ± 6.1% in series [3]. In series [3], the IC50 is greater than 100 µM. Besides, the “decrease of MDA production compared to the toxic agent” value in series [4] came to 60%. In series [5], the “increase of MDA production compared to the control” value stood at 20%.
